Data reported in patent publication US20260176265A1 (Cancer Research Technology Limited, priority 2022, published 2026).

Legend:
[1] = target: CtermHisTag-mEGFR Triple Mutant - C797S, L858R, T790M (Homo sapiens, UniProt P00533, C797S/L858R/T790M); assay: TR-FRET probe displacement assay, EGFR triple mutant; format: binding; settings: T790M 1.25 nM, probe 100 nM, 30 mins room temperature
Method: (§1) Compounds (dissolved to 100 mM in DMSO) were dispensed into black low volume 384 well assay plates (Corning) over a final concentration range of 100000, 30000, 10000, 3000, 1000, 300, 100, 30, 10, and 3 nM using an Echo 550 (Labcyte). Positive control compound and DMSO as a negative control were dispensed into the first and last well, respectively. […]. Plates were read using a PheraStar FS (BMG Labtech) at Ex337 nm Ex490/520 nm. The data were analysed using Graphpad Prism/Dotmatics Studies Software. Assays conducted in technical replicate and repeated as a biological duplicate.

[2] = target: CtermHisTag-mEGFR Wild type (Homo sapiens, UniProt P00533); assay: TR-FRET probe displacement assay, EGFR wild type; format: binding; settings: EGFR wild type 1.25 nM, probe 100 nM, 30 mins room temperature
Method: as §1

[3] = target: T1, Phospho-EGFR (Tyr1068) in H1975 cells (Homo sapiens, UniProt P00533, L858R/T790M); assay: HTRF pEGFR/total EGFR assay in H1975 cells; format: cell-based; settings: compound 3 hours, ratio pEGFR/total EGFR
T1 construct: host or cells: H1975
Method: H1975 cells (ATCC CRL-5908) were plated at 20,000 cells per well in 96 well plates and placed at 37° C. 5% CO2. Once adhered (after 24h) cells were treated with compounds dissolved in DMSO at a final concentration of 0.1% DMSO in media. Compounds were diluted in media then added to cells for 3 hours in duplicate. Compound and media were removed from the cells, then 50ul of HTRF lysis buffer is added (lysis buffer was diluted from 4× stock to 1× in DI water, with 1% blocking agent also added). Cells were lysed on a plate shaker (2000 rpm) for 30 minutes at room temperature. pEGFR expression was monitored using the Cisbio Phospho-EGFR (Tyri068) cellular kit (64EG1 PEH). Total EGFR expression was monitored using the Cisbio Total EGFR cellular kit (64NG1 PEH) as per manufacturer's instructions. Fluorescence emission was read at two different wavelengths (665 nm and 620 nm) on a PheraStar. Results were calculated as ratio of pEGFR/total EGFR and then percentage of 0 uM control.

[4] = target: T2, Phospho-EGFR (Tyr1068) in H1975 C797S cells (Homo sapiens, UniProt P00533, C797S/L858R/T790M); assay: HTRF pEGFR/total EGFR assay in H1975 C797S cells; format: cell-based; settings: H1975 C797S cells (CRISPR), compound 3 hours, ratio pEGFR/total EGFR
T2 construct: endogenous in cells; host or cells: H1975 C797S (CRISPR-edited in house from ATCC CRL-5908)
Method: H1975 C797S cells (ATCC CRL-5908) were genetically engineered by CRISPR editing of EGFR C797S in house and validated by NGS. Cells were plated at 20,000 cells per well in 96 well plates and placed at 37° C. 5% CO2. Once adhered (after 24h) cells were treated with compounds dissolved in DMSO at a final concentration of 0.1% DMSO in media. Compounds were diluted in media then added to cells for 3 hours in duplicate. Compound and media were removed from the cells, then 50 ul of HTRF lysis buffer was added (lysis buffer was diluted from 4× stock to 1× in DI water, with 1% blocking agent also added). Cells were lysed on a plate shaker (2000 rpm) for 30 minutes at room temperature. pEGFR expression was monitored using the Cisbio Phospho-EGFR (Tyr1068) cellular kit (64EG1PEH). Total EGFR expression was monitored using the Cisbio Total EGFR cellular kit (64NG1PEH) as per manufacturer's instructions. Fluorescence emission was read at two different wavelengths (665 nm and 620 nm) on a PheraStar. Results were calculated as ratio of pEGFR/total EGFR and then percentage of 0 uM control.

[5] = target: T3, Phospho-EGFR (Tyr1068) in A431 cells (Homo sapiens, UniProt P00533); assay: HTRF pEGFR/total EGFR assay in A431 cells (EGF stimulated); format: cell-based; settings: compound 2.5 hours then 100 ng/ml EGF 30 mins, ratio pEGFR/total EGFR
T3 construct: endogenous in cells; host or cells: A431
Method: Cells were plated at 20,000 cells per well in 96 well plates and placed at 37° C. 5% CO2. Once adhered (after 24h) cells were treated with compounds dissolved in DMSO at a final concentration of 0.1% DMSO in media. Compounds were diluted in media then added to cells for 2.5 hours in duplicate, 100 ng/ml EGF (ThermoFisher, PHG0311 was is added to all compound treated cells as well as a control for 30 mins. Compound and media were removed from the cells, then 50ul of HTRF lysis bufferwas added (lysis bufferwas diluted from 4× stock to 1× in DI water, with 1% blocking agent also added). Cells were lysed on a plate shaker (2000 rpm) for 30 minutes at room temperature. pEGFR expression was monitored using the Cisbio Phospho-EGFR (Tyr1068) cellular kit (64EG1PEH). Total EGFR expression was monitored using the Cisbio Total EGFR cellular kit (64NG1PEH) as per manufacturer's instructions. Fluorescence emission was read at two different wavelengths (665 nm and 620 nm) on a PheraStar. Results were calculated as ratio of pEGFR/total EGFR and then percentage of OuM control.

Sequence of CtermHisTag-mEGFR Triple Mutant - C797S, L858R, T790M (P00533 25-1210 T790M/C797S/L858R): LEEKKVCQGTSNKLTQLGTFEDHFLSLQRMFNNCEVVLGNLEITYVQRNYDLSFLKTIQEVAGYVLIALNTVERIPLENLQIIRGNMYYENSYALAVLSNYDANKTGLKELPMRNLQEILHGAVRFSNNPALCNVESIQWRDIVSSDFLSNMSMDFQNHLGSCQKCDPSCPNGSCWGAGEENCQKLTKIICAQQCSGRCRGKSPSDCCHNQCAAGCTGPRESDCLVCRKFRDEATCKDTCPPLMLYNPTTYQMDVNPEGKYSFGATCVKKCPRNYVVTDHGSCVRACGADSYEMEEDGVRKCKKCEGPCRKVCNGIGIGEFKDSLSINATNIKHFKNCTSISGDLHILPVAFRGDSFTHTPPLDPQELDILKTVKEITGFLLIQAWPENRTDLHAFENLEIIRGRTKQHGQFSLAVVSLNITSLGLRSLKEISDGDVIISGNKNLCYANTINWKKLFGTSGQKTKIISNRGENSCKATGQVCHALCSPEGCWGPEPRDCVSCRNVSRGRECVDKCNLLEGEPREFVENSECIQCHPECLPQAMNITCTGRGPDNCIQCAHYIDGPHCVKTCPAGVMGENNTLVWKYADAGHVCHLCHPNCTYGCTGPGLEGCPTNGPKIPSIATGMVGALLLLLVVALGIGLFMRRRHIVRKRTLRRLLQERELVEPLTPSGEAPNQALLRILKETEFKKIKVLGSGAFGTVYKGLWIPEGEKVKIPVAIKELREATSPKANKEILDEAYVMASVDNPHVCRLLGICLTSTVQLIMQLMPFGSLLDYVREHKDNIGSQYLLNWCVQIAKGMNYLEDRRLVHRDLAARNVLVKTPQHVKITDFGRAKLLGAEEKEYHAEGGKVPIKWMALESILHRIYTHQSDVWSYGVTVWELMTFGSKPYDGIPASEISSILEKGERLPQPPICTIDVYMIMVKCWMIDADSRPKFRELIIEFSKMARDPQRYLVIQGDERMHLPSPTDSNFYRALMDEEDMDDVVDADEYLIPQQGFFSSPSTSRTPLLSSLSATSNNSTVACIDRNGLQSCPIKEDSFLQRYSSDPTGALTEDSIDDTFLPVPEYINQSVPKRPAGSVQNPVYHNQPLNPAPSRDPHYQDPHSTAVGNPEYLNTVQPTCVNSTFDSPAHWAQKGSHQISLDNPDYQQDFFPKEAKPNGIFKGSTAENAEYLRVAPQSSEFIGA
T2 sequence (P00533 25-1210 T790M/C797S/L858R): as above
T1 sequence (P00533 25-1210 T790M/L858R): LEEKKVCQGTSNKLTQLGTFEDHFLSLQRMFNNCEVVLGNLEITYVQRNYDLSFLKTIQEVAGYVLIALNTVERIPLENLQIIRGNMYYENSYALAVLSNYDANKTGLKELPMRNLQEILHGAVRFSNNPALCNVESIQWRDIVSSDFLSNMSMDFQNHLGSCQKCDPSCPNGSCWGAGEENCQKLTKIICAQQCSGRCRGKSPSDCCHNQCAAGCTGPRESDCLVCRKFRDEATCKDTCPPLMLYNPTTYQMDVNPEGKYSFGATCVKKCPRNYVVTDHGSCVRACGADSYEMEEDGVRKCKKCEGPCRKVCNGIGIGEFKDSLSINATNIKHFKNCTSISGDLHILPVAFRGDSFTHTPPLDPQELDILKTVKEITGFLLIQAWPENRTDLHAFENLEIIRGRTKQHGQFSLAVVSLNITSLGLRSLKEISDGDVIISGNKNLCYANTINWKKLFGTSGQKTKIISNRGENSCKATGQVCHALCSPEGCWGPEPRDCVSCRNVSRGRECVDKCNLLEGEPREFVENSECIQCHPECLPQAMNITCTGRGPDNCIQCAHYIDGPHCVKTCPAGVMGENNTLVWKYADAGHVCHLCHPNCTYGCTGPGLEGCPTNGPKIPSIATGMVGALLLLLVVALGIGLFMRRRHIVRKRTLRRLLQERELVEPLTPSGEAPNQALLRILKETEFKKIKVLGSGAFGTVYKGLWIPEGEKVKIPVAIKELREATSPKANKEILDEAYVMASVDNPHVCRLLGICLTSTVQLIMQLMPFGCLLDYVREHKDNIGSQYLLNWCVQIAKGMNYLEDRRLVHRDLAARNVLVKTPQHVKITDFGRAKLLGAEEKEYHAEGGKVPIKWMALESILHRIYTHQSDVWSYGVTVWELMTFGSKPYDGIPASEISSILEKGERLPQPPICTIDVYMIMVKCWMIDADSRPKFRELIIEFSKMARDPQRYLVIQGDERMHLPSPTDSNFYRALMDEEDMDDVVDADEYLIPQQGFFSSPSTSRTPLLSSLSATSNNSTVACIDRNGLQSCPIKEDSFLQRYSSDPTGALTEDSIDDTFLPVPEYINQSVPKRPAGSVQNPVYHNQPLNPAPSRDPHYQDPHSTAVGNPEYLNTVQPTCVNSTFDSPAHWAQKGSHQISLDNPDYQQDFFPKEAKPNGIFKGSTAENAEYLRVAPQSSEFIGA
T3 sequence (P00533 25-1210): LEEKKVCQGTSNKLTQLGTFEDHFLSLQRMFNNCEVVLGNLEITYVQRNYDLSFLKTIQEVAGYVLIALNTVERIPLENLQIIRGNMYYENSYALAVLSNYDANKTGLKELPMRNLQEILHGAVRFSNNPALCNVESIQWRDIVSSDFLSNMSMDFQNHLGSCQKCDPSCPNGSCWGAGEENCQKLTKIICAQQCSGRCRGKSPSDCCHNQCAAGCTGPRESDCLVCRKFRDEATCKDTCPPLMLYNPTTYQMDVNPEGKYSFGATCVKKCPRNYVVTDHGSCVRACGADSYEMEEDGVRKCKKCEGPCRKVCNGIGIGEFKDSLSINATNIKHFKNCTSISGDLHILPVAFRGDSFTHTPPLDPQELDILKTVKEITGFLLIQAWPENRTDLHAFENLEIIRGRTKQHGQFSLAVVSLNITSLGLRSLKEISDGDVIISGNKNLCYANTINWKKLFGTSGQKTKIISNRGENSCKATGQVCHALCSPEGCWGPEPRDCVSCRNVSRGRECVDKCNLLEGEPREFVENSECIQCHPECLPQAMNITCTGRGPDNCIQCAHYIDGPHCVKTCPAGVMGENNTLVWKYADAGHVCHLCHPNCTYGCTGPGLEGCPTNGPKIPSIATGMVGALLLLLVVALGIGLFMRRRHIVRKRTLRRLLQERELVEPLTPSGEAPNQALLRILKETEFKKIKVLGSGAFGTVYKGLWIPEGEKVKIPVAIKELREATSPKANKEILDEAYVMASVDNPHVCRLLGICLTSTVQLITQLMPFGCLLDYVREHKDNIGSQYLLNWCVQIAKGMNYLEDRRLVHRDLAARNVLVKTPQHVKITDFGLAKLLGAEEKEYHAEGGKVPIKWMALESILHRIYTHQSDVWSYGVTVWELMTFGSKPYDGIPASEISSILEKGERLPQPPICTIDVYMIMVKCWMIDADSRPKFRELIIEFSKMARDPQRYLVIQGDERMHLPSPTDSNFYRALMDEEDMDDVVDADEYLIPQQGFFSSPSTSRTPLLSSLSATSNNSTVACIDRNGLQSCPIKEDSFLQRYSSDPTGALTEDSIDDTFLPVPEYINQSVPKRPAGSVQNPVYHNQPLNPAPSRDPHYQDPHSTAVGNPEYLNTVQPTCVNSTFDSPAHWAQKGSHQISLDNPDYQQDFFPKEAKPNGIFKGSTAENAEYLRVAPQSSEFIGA

| IC50 [1] | IC50 [2] | IC50 [3] | IC50 [4] | IC50 [5] | SMILES |
| --- | --- | --- | --- | --- | --- |
| 0.1 to 1 µM | > 10 µM | > 3 µM | > 3 µM | > 3 µM | C#Cc1cc(Oc2ccccc2)nc2nc(Nc3ccc(N4CCN(C)CC4)cc3)ncc12 [Example 12, 5-ethynyl-N-[4-(4-methylpiperazin-1-yl)phenyl]-7-phenoxypyrido[2,3-d]pyrimidin-2-amine] |
| 0.02 to 0.1 µM | > 10 µM | 1 to 3 µM | > 3 µM | > 3 µM | C#Cc1cc(OCc2cscn2)nc2nc(Nc3ccc(N4CCN(C)CC4)cc3)ncc12 [Example 13, 5-ethynyl-N-[4-(4-methylpiperazin-1-yl)phenyl]-7-(1,3-thiazol-4-ylmethoxy)pyrido[2,3-d]pyrimidin-2-amine] |
| 0.1 to 1 µM | > 10 µM | > 3 µM | > 3 µM | > 3 µM | C#Cc1cc(OC2CCCCC2)nc2nc(Nc3ccc(N4CCN(C)CC4)cc3)ncc12 [Example 14, 7-(cyclohexyloxy)-5-ethynyl-N-(4-(4-methylpiperazin-1-yl)phenyl)pyrido[2,3-d]pyrimidin-2-amine] |
| 0.1 to 1 µM | > 10 µM | 1 to 3 µM | > 3 µM | > 3 µM | C#Cc1cc(OC2CC2)nc2nc(Nc3ccc(N4CCN(C)CC4)cc3)ncc12 [Example 16, 7-cyclopropoxy-5-ethynyl-N-[4-(4-methylpiperazin-1-yl)phenyl]pyrido[2,3-d]pyrimidin-2-amine] |
| 0.1 to 1 µM | > 10 µM | 1 to 3 µM | 1 to 3 µM | > 3 µM | C#Cc1cc(OC(C)C)nc2nc(Nc3ccc(N4CCN(C)CC4)cc3)ncc12 [Example 17, 5-ethynyl-7-isopropoxy-N-[4-(4-methylpiperazin-1-yl)phenyl]pyrido[2,3-d]pyrimidin-2-amine] |
| 0.1 to 1 µM | > 10 µM | > 3 µM | > 3 µM | > 3 µM | C#Cc1cc(OCc2ccccc2)nc2nc(Nc3ccc(N4CCN(C)CC4)cc3)ncc12 [Example 20, 7-(benzyloxy)-5-ethynyl-N-[4-(4-methylpiperazin-1-yl)phenyl]pyrido[2,3-d]pyrimidin-2-amine] |
| 0.1 to 1 µM | > 10 µM | > 3 µM | > 3 µM | > 3 µM | C#Cc1cc(OCCc2ccccc2)nc2nc(Nc3ccc(N4CCN(C)CC4)cc3)ncc12 [Example 21, 5-ethynyl-N-[4-(4-methylpiperazin-1-yl)phenyl]-7-(2-phenylethoxy)pyrido[2,3-d]pyrimidin-2-amine] |

Continued, compound first:

| SMILES | IC50 [1] | IC50 [2] | IC50 [3] | IC50 [4] | IC50 [5] |
| --- | --- | --- | --- | --- | --- |
| C#Cc1cc(OC)nc2nc(Nc3ccc(N4CCN(C)CC4)c(NCC4CCC4)c3)ncc12 [Example 10, N^3-(cyclobutylmethyl)-N^1-{5-ethynyl-7-methoxypyrido[2,3-d]pyrimidin-2-yl}-4-(4-methylpiperazin-1-yl)benzene-1,3-diamine] | 0.02 to 0.1 µM | 1 to 10 µM | > 3 µM | > 3 µM | > 3 µM |
| C#Cc1cc(OC)nc2nc(Nc3ccc(N4CCN(C)CC4)c(NCc4ccn(C)n4)c3)ncc12 [Example 11, N^1-{5-ethynyl-7-methoxypyrido[2,3-d]pyrimidin-2-yl}-4-(4-methylpiperazin-1-yl)-N^3-[(1-methylpyrazol-3-yl)methyl]benzene-1,3-diamine] | 0.1 to 1 µM | > 10 µM | > 3 µM | > 3 µM | > 3 µM |
| C#Cc1cc(OC2CCC2)nc2nc(Nc3ccc(N4CCN(C)CC4)cc3)ncc12 [Example 18, 7-cyclobutoxy-5-ethynyl-N-[4-(4-methylpiperazin-1-yl)phenyl]pyrido[2,3-d]pyrimidin-2-amine] | 0.02 to 0.1 µM | > 10 µM | > 3 µM | > 3 µM | > 3 µM |
| C#Cc1cc(OCCCc2ccccc2)nc2nc(Nc3ccc(N4CCN(C)CC4)cc3)ncc12 [Example 22, 5-ethynyl-N-[4-(4-methylpiperazin-1-yl)phenyl]-7-(3-phenylpropoxy)pyrido[2,3-d]pyrimidin-2-amine] | 0.1 to 1 µM | > 10 µM | > 3 µM | > 3 µM | > 3 µM |
